2 molecules from patent US7678820B2, “Hetero compound” (Astellas Pharma Inc., priority 2006, dated 2010) can be followed below.

The test system of assay [1] is number of the lymphocytes in peripheral blood. Nature of the assay: Evaluation of peripheral blood lymphopenia in rat. It counts as in vivo. The following applies: for ED50: Rattus norvegicus, Lymphocyte, male Lewis rats, oral administration, 50% reduction of the number of lymphocytes in peripheral blood at 24 hours after administration, read-out: ED50 value after 24 hours; for ED50 value after 24 hours, conclusion in words (persistence): rat peripheral blood lymphopenia, 24 hours after oral administration. As for the experimental part:
2) Evaluation of Peripheral Blood Lymphopenia in Rat
The peripheral blood lymphopenia in rat was measured at 24 hours after oral administration in the following manner. Six- to ten-week-old male Lewis rats (Japan Charles river laboratories) were randomly divided into the groups (n=3), and the compound of the present invention was suspended in 0.5% methyl cellulose-containing distilled water, and orally administered with a sonde. At 24 hours after administration, under ether anesthesia, 0.2 ml of blood was collected from ocular fundus. To the blood sample were immediately added EDTA/4K and heparin to prevent clotting, and the number of the lymphocytes in blood was measured with an automatic haematology analyzer (Sysmex Corp.; XT-2000i). For the reduction of the number of the lymphocytes in peripheral blood by the compound of the present invention, the percentage with the number of the lymphocytes in groups administered with 0.5% methyl cellulose-containing distilled water being set at 100%, as performed at the same time was used, and the dose to cause 50% reduction of the number of the lymphocytes in peripheral blood by administration of the compound of the present invention was defined an ED50 value (mg/kg).

The target of the next assay is T1, human S1P1 (Homo sapiens, UniProt P21453).
T1 construct: expressed in transfected cells; membrane fraction used
T1 sequence (P21453 whole entry): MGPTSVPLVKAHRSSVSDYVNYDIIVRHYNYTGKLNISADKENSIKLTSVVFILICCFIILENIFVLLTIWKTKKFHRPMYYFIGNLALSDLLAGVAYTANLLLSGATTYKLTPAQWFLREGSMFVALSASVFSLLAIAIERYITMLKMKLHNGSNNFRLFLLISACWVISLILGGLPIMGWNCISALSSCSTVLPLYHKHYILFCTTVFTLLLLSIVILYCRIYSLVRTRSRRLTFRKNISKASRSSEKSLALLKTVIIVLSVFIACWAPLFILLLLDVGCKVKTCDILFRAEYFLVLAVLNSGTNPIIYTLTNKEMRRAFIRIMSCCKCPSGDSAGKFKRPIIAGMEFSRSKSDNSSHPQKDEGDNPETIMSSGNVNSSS
Briefly: GTP[γ-35S] bond assay using the membrane of a human S1P1 expressing cell (S1P1 agonist activity). Particulars: membrane of human S1P1 expressing CHO cell; concentration causing 50% of the maximum GTP[γ-35S] reaction. Format: biochemical. How it is done: 1) Evaluation of a Receptor Agonist Activity by a GTP[γ-^35S] Bond Assay Using the Membrane of a Human S1P1 Expressing Cell
The in vitro S1P1 agonist activity of the compound of the present invention was evaluated by the increase in the functional bonding activity into the G-Protein of a GTP[γ-^35S] using the membrane of a human S1P1 expressing cell. A cDNA encoding a human S1P1 was cloned from a human colorectal cDNA library, and introduced to an expression vector pcDNA3.1 to construct a S1P1-pcDNA3.1. Then, by Lipofectamine 2000 (GIBCO), the S1P1-pcDNA3.1 was transfected into a CHO cell, and cultured in a Ham's F-12 culture medium containing 10% fetal bovine serum, 100 U/mL Penicillin, 100 μg/mL Streptomycin, and 1 mg/mL G418 disulfate, to obtain a stable, G418-resistant strain. The cultured human S1P1 expressing cells were isolated in a 1 mM EDTA/2Na-containing PBS, and disrupted under ice-cooling by a homogenizer made of glass in a 1 mM Tris HCl (pH 7.4) buffer solution containing 0.1 mM EDTA and a […]. It was centrifuged at […], and a supernatant was further centrifuged at 4° C. for 60 min at 100,000×g, and suspended in a 10 mM Tris HCl (pH 7.4) buffer solution containing 1 mM EDTA. The obtained membrane (0.13 mg/mL) and […] GTP[γ-^35S] […] The FilterMate was dried at 50° C. for 60 min, and Microscinti-o (Packard) was added thereto for measurement by a liquids scintillation counter for a microplate (Packard, TOP count). For evaluation of the human S1P1 agonist activity of the compound of the present invention and the comparative compound, the percentages with the rate of a maximum reaction to make the GTP[γ-^35S] bonds saturated in the presence of the compound being set at 100%, and the rate of the reaction of the GTP[γ-^35S] bonds in the absence of the compound being set at 0% was used, a non-linear regression curve was plotted, and a concentration to cause an agonist activity operating 50% of the maximum reaction was defined as an EC50 value (nM).

Broadly, the ED50 is the dose at which the effect has come halfway, by size or by number of responders. A word on the EC50: it is the concentration at which the effect is half-maximal. Read a low EC50 as greater potency. In the case of `C[C@H](Oc1ccc(-c2nc(-c3ccc4[nH]cnc4c3)no2)cc1C(F)(F)F)C(F)(F)F.Cl` [Ex 119], in assay [1], the ED50 is 0.071 mg/kg and the “ED50 value after 24 hours, conclusion in words (persistence)” value is reported as “high ED50 value even after 24 hours, indicating persistence”. On human S1P1, this molecule gave an EC50 of 4.3 nM.
With `C[C@H](Oc1ccc(-c2nc(-c3ccc4[nH]cnc4c3)no2)cc1Cl)C(F)(F)F.Cl` [Ex 199], in assay [1], the median effective dose (ED50) stood at 0.26 mg/kg and the “ED50 value after 24 hours, conclusion in words (persistence)” value is reported as “high ED50 value even after 24 hours, indicating persistence”. Further, the concentration giving a half-maximal response (EC50) on human S1P1 stood at 5 nM.
